6 molecules from US20080032978A1, “SOLUBLE EPOXIDE HYDROLASE INHIBITORS” (Arete Therapeutics, Inc., priority 2006, published 2008) can be followed below.

For data set [1], the system named is soluble epoxide hydrolase (sEH). Nature of the data set: Fluorescent assay for mouse and human soluble epoxide hydrolase (CMNPC substrate). The class given is biochemical. An excerpt: Fluorescent Assay for Mouse and Human Soluble Epoxide Hydrolase Recombinant mouse sEH (MsEH) and human sEH (HsEH) were produced in a baculovirus expression system as previously reported. Grant et al., J. Biol. Chem., 268:17628-17633 (1993); Beetham et al., Arch. Biochem. Biophys., 305:197-201 (1993). The expressed proteins were purified from cell lysate by affinity chromatography. Wixtrom et al., Anal. […] Protein concentration was quantified using the Pierce BCA assay using bovine serum albumin as the calibrating standard. […] Solutions: Bis/Tris HCl 25 mM 7.0 containing 0.1 mg/mL of BSA (buffer […] at 0.25 mM in DMSO. Mother solution of enzyme in buffer A (Mouse sEH at 6 μg/mL and Human sEH at 5 μg/mL). Inhibitor dissolved in DMSO at the appropriate concentration. Protocol: In a black 96 well plate, fill all the wells with 150 μL of buffer A. Add 2 μL of DMSO in well A2 and A3, and then add 2 μL of inhibitor solution in A1 and A4 through A12. Add 150 μL of buffer A in a row A, then mix several time and transfer 150 μL to row B. Repeat this operation up to row H. The 150 μL removed from row H go to the trash. Add 20 μL of buffer A in column 1 and 2, then add 20 μL of enzyme solution to column 3 to 12. Incubate the plate for 5 minutes in the plate reader at 30° C. During incubation prepare the working solution of substrate by mixing 3.68 mL of buffer A (4×0.920 mL) with 266 μL (2×133 μL) of substrate solution). At t=0, add 30 μL of working substrate solution with multi-channel pipette labeled “Briggs 303” and start the reading ([S]final: 5 μM). Read with ex: 330 nm (20 nm) and em: 465 nm (20 nm) every 30 second for 10 minutes. The velocities are used to analyze and calculate the IC50s.

Each structure is given as a SMILES string.

With `CN(C)CCN(C)C(=O)c1ccc(NC(=O)NC23CC4CC(CC(C4)C2)C3)cc1` [Compound 37, 4-(3-Adamantan-1-yl-ureido)-N-(2-dimethylamino-ethyl)-N-methyl-benzamide], the melting point lay within 150 to 156 °C. In data set [1] (Conc of I 500 nM), the “% I” value was found to be 88%.
Taken in the same sequence, the figures for `CN(CC(=O)O)C(=O)C1CCC(NC(=O)NC23CC4CC(CC(C4)C2)C3)CC1` (stereo not drawn) [Compound 36, {[4-(3-Adamantan-1-yl-ureido)-cyclohexanecarbonyl]-methyl-amino}-acetic acid] were 236 to 240 °C and 95%.
For `O=C(Nc1ccc(C(=O)N2CCC(C(=O)O)CC2)cc1)NC12CC3CC(CC(C3)C1)C2` [Compound 12, 1-[4-(3-Adamantan-1-yl-ureido)-benzoyl]-piperidine-4-carboxylic acid], the melting point fell in the range of 272 to 275 °C. In data set [1] (Conc of I 5000 nM), the “% I” value was 99%.
`O=C(Nc1ccc(C(F)(F)F)cc1)Nc1cccc(C(=O)N2CCC(C(=O)O)CC2)c1` [Compound 29, 1-{3-[3-(4-Trifluoromethyl-phenyl)-ureido]-benzoyl}-piperidine-4-carboxylic acid] registered a melting point of 193 to 197 °C. In addition, the “% I” value in data set [1] (Conc of I 500 nM) is 94%.
Taken in the same sequence, the figures for `CN(CC(=O)N1CCOCC1)C(=O)c1ccc(NC(=O)Nc2ccc(C(F)(F)F)cc2)cc1` [Compound 39, N-Methyl-N-(2-morpholin-4-yl-2-oxo-ethyl)-4-[3-(4-trifluoromethyl-phenyl)-ureido]-benzamide] were 226 to 233 °C and 86%.
The molecule `O=C(Nc1ccc(Cl)cc1)Nc1ccc(C(=O)N2CCC(C(=O)O)CC2)cc1` [Compound 9, 1-{4-[3-(4-Chloro-phenyl)-ureido]-benzoyl}-piperidine-4-carboxylic acid] came in with a melting point of 238 to 241 °C. For the same molecule, in data set [1] (Conc of I 500 nM), the “% I” value worked out at 64%.

One may read the melting point as the temperature, or range, at which the solid turns liquid.
